In US10004711B2, “Methods and compositions comprising 10-hydroxy-2-decenoic acid” (DSM IP ASSETS B.V., priority 2014, dated 2018):

Experiment: Body weight of aged male rats fed QBA (Example 7)
Format: in vivo, rat
Experimental: Aged male rats were fed 10-Hydroxy-2-decenoic acid (QBA) for approximately 7 months from 11-months to 18-months of age and the weight of rats was recorded.

O=C(O)C=CCCCCCCCO [QBA, 10-Hydroxy-2-decenoic acid]
Avg Wt (QBA 4 mg/kg/day, study day 113): 594.7 g
Avg Wt (QBA 4 mg/kg/day, study day 120): 592.2 g
Avg Wt (QBA 4 mg/kg/day, study day 127): 592.4 g
Avg Wt (QBA 4 mg/kg/day, study day 141): 593.1 g
Avg Wt (QBA 4 mg/kg/day, study day 148): 588.0 g
Avg Wt (QBA 4 mg/kg/day, study day 155): 587.8 g
Avg Wt (QBA 4 mg/kg/day, study day 162): 589.5 g
Avg Wt (QBA 4 mg/kg/day, study day 169): 594.0 g
Avg Wt (QBA 4 mg/kg/day, study day 176): 601.7 g
Avg Wt (QBA 4 mg/kg/day, study day 182): 588.0 g
Avg Wt (QBA 4 mg/kg/day, study day 190): 597.8 g
Avg Wt (QBA 4 mg/kg/day, study day 197): 597.7 g
Avg Wt (QBA 4 mg/kg/day, study day 204): 601.8 g
Avg Wt (QBA 4 mg/kg/day, study day 211): 596.6 g
Avg Wt (QBA 4 mg/kg/day, study day 217): 595.9 g
Avg Wt (QBA 12 mg/kg/day, study day 0): 508.7 g
Avg Wt (QBA 12 mg/kg/day, study day 7): 508.8 g
Avg Wt (QBA 12 mg/kg/day, study day 21): 508.0 g
Avg Wt (QBA 12 mg/kg/day, study day 29): 490.2 g
Avg Wt (QBA 12 mg/kg/day, study day 36): 511.7 g
Avg Wt (QBA 12 mg/kg/day, study day 50): 554.3 g
Avg Wt (QBA 12 mg/kg/day, study day 57): 551.4 g
Avg Wt (QBA 12 mg/kg/day, study day 64): 567.6 g
Avg Wt (QBA 12 mg/kg/day, study day 71): 574.1 g
Avg Wt (QBA 12 mg/kg/day, study day 78): 573.1 g
Avg Wt (QBA 12 mg/kg/day, study day 85): 574.6 g
Avg Wt (QBA 12 mg/kg/day, study day 92): 581.2 g
Avg Wt (QBA 12 mg/kg/day, study day 99): 584.5 g
Avg Wt (QBA 12 mg/kg/day, study day 106): 591.2 g
Avg Wt (QBA 12 mg/kg/day, study day 113): 591.2 g
Avg Wt (QBA 12 mg/kg/day, study day 120): 586.1 g
Avg Wt (QBA 12 mg/kg/day, study day 127): 593.3 g
Avg Wt (QBA 12 mg/kg/day, study day 141): 595.8 g
Avg Wt (QBA 12 mg/kg/day, study day 148): 592.9 g
Avg Wt (QBA 12 mg/kg/day, study day 155): 591.1 g
Avg Wt (QBA 12 mg/kg/day, study day 162): 580.5 g
Avg Wt (QBA 12 mg/kg/day, study day 169): 588.2 g
Avg Wt (QBA 12 mg/kg/day, study day 176): 593.0 g
Avg Wt (QBA 12 mg/kg/day, study day 182): 590.6 g
Avg Wt (QBA 12 mg/kg/day, study day 190): 599.5 g
Avg Wt (QBA 12 mg/kg/day, study day 197): 600.8 g
Avg Wt (QBA 12 mg/kg/day, study day 204): 595.5 g
Avg Wt (QBA 12 mg/kg/day, study day 211): 599.6 g
Avg Wt (QBA 12 mg/kg/day, study day 217): 593.7 g
Avg Wt (QBA 24 mg/kg/day, study day 0): 516.8 g
Avg Wt (QBA 24 mg/kg/day, study day 7): 510.9 g
Avg Wt (QBA 24 mg/kg/day, study day 21): 530.8 g
Avg Wt (QBA 24 mg/kg/day, study day 29): 512.3 g
Avg Wt (QBA 24 mg/kg/day, study day 36): 546.4 g
Avg Wt (QBA 24 mg/kg/day, study day 50): 574.6 g
Avg Wt (QBA 24 mg/kg/day, study day 57): 586.8 g
Avg Wt (QBA 24 mg/kg/day, study day 64): 594.2 g
Avg Wt (QBA 24 mg/kg/day, study day 71): 598.5 g
Avg Wt (QBA 24 mg/kg/day, study day 78): 600.7 g
Avg Wt (QBA 24 mg/kg/day, study day 85): 608.8 g
Avg Wt (QBA 24 mg/kg/day, study day 92): 614.9 g
Avg Wt (QBA 24 mg/kg/day, study day 99): 618.1 g
Avg Wt (QBA 24 mg/kg/day, study day 106): 626.7 g
Avg Wt (QBA 24 mg/kg/day, study day 113): 628.4 g
Avg Wt (QBA 24 mg/kg/day, study day 120): 628.6 g
Avg Wt (QBA 24 mg/kg/day, study day 127): 630.3 g
Avg Wt (QBA 24 mg/kg/day, study day 141): 632.0 g
Avg Wt (QBA 24 mg/kg/day, study day 148): 635.4 g
Avg Wt (QBA 24 mg/kg/day, study day 155): 636.3 g
Avg Wt (QBA 24 mg/kg/day, study day 162): 637.3 g
Avg Wt (QBA 24 mg/kg/day, study day 169): 628.4 g
Avg Wt (QBA 24 mg/kg/day, study day 176): 643.9 g
Avg Wt (QBA 24 mg/kg/day, study day 182): 646.0 g
Avg Wt (QBA 24 mg/kg/day, study day 190): 649.5 g
Avg Wt (QBA 24 mg/kg/day, study day 197): 653.3 g
Avg Wt (QBA 24 mg/kg/day, study day 204): 644.4 g
Avg Wt (QBA 24 mg/kg/day, study day 211): 647.8 g
Avg Wt (QBA 24 mg/kg/day, study day 217): 650.6 g
body weight versus control, repeated measures ANOVA (all doses versus 0 mg/kg/day QBA): small but significant increase
body weight maintenance in aging male rats (summary of Table 13): helped to maintain healthy body weight
